Results published in patent publication US20150038527A1, “FUROPYRIDINE DERIVATIVES” (Merck Patent GmbH, priority 2012, published 2015).

Target: T1, SYK (Homo sapiens, UniProt P43405)
T1 construct: 2.5 nM SYK, 400 nM Biotin-Aha-Aha-KEDPDYEWPSAKK and 10 μM ATP
Assay: SYK Flash Plate Assay (enzyme assay)
Type: biochemical
Method: The kinase assay is performed either as 384-well Flashplate assay (for e.g. Topcount measurement) or as 384-well Image-Flashplate assay (for LEADseeker measurement).
2.5 nM SYK, 400 nM Biotin-Aha-Aha-KEDPDYEWPSAKK and 10 μM ATP (spiked with 0.3 μCi 33P-ATP/well) are incubated in a total volume of 50 μl (60 mM Hepes, 10 mM MgCl2, 1.2 mM Dithiothreitol, 0.02% Brij35, 0.1% BSA, pH 7.5) with or without test compound for 1 hours at 30° C. The reaction is stopped with 25 μl 200 mM EDTA. After 30 Min at 30° C. the liquid is removed and each well washed thrice with 100 μl 0.9% sodium chloride solution. Non-specific reaction is determined in presence of 0.1 μM Staurosporine. Radioactivity is measured with Topcount (when using Flashplates) or with LEADseeker (when using Image-Flashplates) respectively. Results (e.g. IC50-values) are calculated with program tools provided by the IT-department (e.g. Symyx Assay Explorer, Genedata Screener).

Structure (SMILES) | IC50 [µM]
COc1ccc(C(N)=O)cc1-c1cc2nccc(-c3ccnc(NCCN)c3)c2o1 [Compound A80, 3-{7-[2-(2-amino-ethylamino)-pyridin-4-yl]-furo[3,2-b]pyridin-2-yl}-4-methoxybenzamide] | < 0.1
COc1cc2[nH]cnc2cc1-c1ccnc2cc(-c3cc(OC)c(OC)c(OC)c3)oc12 [Compound A87, 7-(6-methoxy-1H-benzoimidazol-5-yl)-2-(3,4,5-trimethoxy-phenyl)-furo[3,2-b]pyridine] | 0.3 to 3
COc1cc(-c2cc3nccc(-c4cc(F)cc(C(=O)NCCCN)c4)c3o2)cc(OC)c1OC [Compound A61, N-(3-amino-propyl)-3-fluoro-5-[2-(3,4,5-trimethoxy-phenyl)-furo[3,2-b]pyridin-7-yl]-benzamide] | 3 to 50
COc1cc(OCCN)ccc1-c1cc2nccc(-c3ccc4[nH]cnc4c3)c2o1 [Compound A18, 2-{4-[7-(1H-benzoimidazol-5-yl)-furo[3,2-b]pyridin-2-yl]-3-methoxy-phenoxy}-ethylamine] | 0.3 to 3
COc1cc(-c2cc3nccc(-c4ccc5ncn(CCN)c5c4)c3o2)cc(OC)c1OC [Compound A8, 2-{6-[2-(3,4,5-trimethoxy-phenyl)-furo[3,2-b]pyridin-7-yl]-benzoimidazol-1-yl}-ethylamine] | 0.3 to 3
COc1cc(-c2cc3nccc(-c4cc5cn[nH]c5cc4C)c3o2)cc(OC)c1OC [Compound A13, 7-(6-methyl-1H-indazol-5-yl)-2-(3,4,5-trimethoxy-phenyl)-furo[3,2-b]pyridine] | 0.3 to 3
COc1ccc(C(N)=O)cc1-c1cc2nccc(-c3c(OC)cc(C(=O)NCCN)cc3OC)c2o1 [Compound A76, N-(2-amino-ethyl)-4-[2-(5-carbamoyl-2-methoxy-phenyl)-furo[3,2-b]pyridin-7-yl]-3,5-dimethoxy-benzamide] | < 0.1
COc1ccc(C(N)=O)cc1-c1cc2nccc(-c3cc(S(N)(=O)=O)ccc3OC)c2o1 [Compound A77, 4-methoxy-3-[7-(2-methoxy-5-sulfamoyl-phenyl)-furo[3,2-b]pyridin-2-yl]-benzamide] | 0.3 to 3
COc1ccc(C(N)=O)cc1-c1cc2nccc(-c3ccc4[nH]cnc4c3)c2o1 [Compound A9, 3-[7-(1H-benzoimidazol-5-yl)-furo[3,2-b]pyridin-2-yl]-4-methoxy-benzamide] | < 0.1
COc1cc(-c2cc3nccc(-c4nnc(CCN)o4)c3o2)cc(OC)c1OC [Compound A102, 2-{5-[2-(3,4,5-trimethoxy-phenyl)-furo[3,2-b]pyridin-7-yl]-[1,3,4]oxadiazol-2-yl}-ethylamine] | 3 to 50
COc1cc(-c2cc3nccc(N=[N+]=[N-])c3o2)cc(OC)c1OC [Compound A86, 7-azido-2-(3,4,5-trimethoxy-phenyl)-furo[3,2-b]pyridine] | 3 to 50
COc1cc(-c2cc3nccc(-c4ccc5c(c4)[nH]c(=O)n5CCN)c3o2)cc(OC)c1OC [Compound A37, 1-(2-amino-ethyl)-5-[2-(3,4,5-trimethoxy-phenyl)-furo[3,2-b]pyridin-7-yl]-1,3-dihydro-benzoimidazol-2-one] | 0.3 to 3
COc1cc(-c2cc3nccc(-c4cccc(C(=O)N[C@@H]5CCC[C@@H]5O)c4)c3o2)cc(OC)c1OC [Compound A22, N-((1R,2S)-2-hydroxy-cyclopentyl)-3-[2-(3,4,5-trimethoxy-phenyl)-furo[3,2-b]pyridin-7-yl]-benzamide] | 3 to 50
COc1ccc(C(=O)NCCCN)cc1-c1ccnc2cc(-c3cc(OC)c(OC)c(OC)c3)oc12 [Compound A58, N-(3-amino-propyl)-4-methoxy-3-[2-(3,4,5-trimethoxy-phenyl)-furo[3,2-b]pyridin-7-yl]-benzamide] | 0.3 to 3
COc1cc(-c2cc3nccc(-c4cnc[nH]4)c3o2)cc(OC)c1OC [Compound A91, 7-(3H-imidazol-4-yl)-2-(3,4,5-trimethoxy-phenyl)-furo[3,2-b]pyridine] | 0.1 to 0.3
COc1cc(-c2cc3nccc(NC(=O)NC4CCCCC4N)c3o2)cc(OC)c1OC (stereo not shown) [Compound A75, 1-(2-amino-cyclohexyl)-3-[2-(3,4,5-trimethoxy-phenyl)-furo[3,2-b]pyridin-7-yl]-urea] | 3 to 50
COc1cc(-c2cc3nccc(-c4c(OC)cncc4OC)c3o2)cc(OC)c1OC [Compound A103, 7-(3,5-dimethoxy-pyridin-4-yl)-2-(3,4,5-trimethoxy-phenyl)-furo[3,2-b]pyridine] | < 0.1
COc1cc(-c2cc3nccc(-c4cc(OCCN)ccc4F)c3o2)cc(OC)c1OC [Compound A44, 2-{4-fluoro-3-[2-(3,4,5-trimethoxy-phenyl)-furo[3,2-b]pyridin-7-yl]-phenoxy}-ethylamine] | 0.3 to 3
COc1cc(-c2cc3nccc(-c4nnc(C)o4)c3o2)cc(OC)c1OC [Compound A99, 7-(5-methyl-[1,3,4]oxadiazol-2-yl)-2-(3,4,5-trimethoxy-phenyl)-furo[3,2-b]pyridine] | 0.3 to 3
COc1ccc(C(N)=O)cc1-c1cc2nccc(-c3cc4[nH]cnc4cc3OC)c2o1 [Compound A89, 4-Methoxy-3-[7-(6-methoxy-3H-benzoimidazol-5-yl)-furo[3,2-b]pyridin-2-yl]-benzamide] | 0.3 to 3
COc1cc(-c2cc3ncc(-c4cn[nH]c4)cc3o2)cc(OC)c1OC [Compound A59, 6-(1H-pyrazol-4-yl)-2-(3,4,5-trimethoxy-phenyl)-furo[3,2-b]pyridine] | 3 to 50
COc1ccc(C(N)=O)cc1-c1cc2nccc(-c3cc(C(=O)NCCN)ccc3OC)c2o1 [Compound A79, 3-[7-[5-(2-aminoethylcarbamoyl)-2-methoxy-phenyl]furo[3,2-b]pyridin-2-yl]-4-methoxy-benzamide] | 0.3 to 3
COc1cc(-c2cc3nccc(-c4cccc(C(=O)NCC(O)CO)c4)c3o2)cc(OC)c1OC (stereo not shown) [Compound A20, N-(2,3-dihydroxy-propyl)-3-[2-(3,4,5-trimethoxy-phenyl)-furo[3,2-b]pyridin-7-yl]-benzamide] | 3 to 50
COc1ccc(C(N)=O)cc1-c1cc2nccc(-c3ccc(C(=O)NCCN)cc3OC)c2o1 [Compound A95, N-(2-aminoethyl)-4-[2-(5-carbamoyl-2-methoxy-phenyl)furo[3,2-b]pyridin-7-yl]-3-methoxy-benzamide] | 0.1 to 0.3
CCc1ccccc1-c1cc2nccc(-c3cccc(C(=O)N[C@@H]4CCCC[C@@H]4N)c3)c2o1 [Compound A49, N-((1R,2S)-2-amino-cyclohexyl)-3-[2-(2-ethyl-phenyl)-furo[3,2-b]pyridin-7-yl]-benzamide] | 3 to 50
COc1cc(-c2cc3nccc(-c4cccc(C(=O)N[C@H]5CCCC[C@H]5O)c4)c3o2)cc(OC)c1OC [Compound A11, N-((1S,2R)-2-hydroxy-cyclohexyl)-3-[2-(3,4,5-trimethoxy-phenyl)-furo[3,2-b]pyridin-7-yl]-benzamide] | 0.3 to 3
COc1cc(-c2cc3nccc(-c4cccc(C(=O)N[C@@H]5COC[C@@H]5N)c4)c3o2)cc(OC)c1OC [Compound A67, N-((3S,4R)-4-amino-tetrahydro-furan-3-yl)-3-[2-(3,4,5-trimethoxy-phenyl)furo[3,2-b]pyridin-7-yl]-benzamide] | 3 to 50
COc1ccc(C(N)=O)cc1-c1cc2nccc(-c3cc[nH]n3)c2o1 [Compound A72, 4-methoxy-3-[7-(1H-pyrazol-3-yl)-furo[3,2-b]pyridin-2-yl]-benzamide] | < 0.1
